Measured values published in patent publication US20260049061A1, “SMALL MOLECULES AS KCNQ2/3 (KV7.2/3) CHANNEL ACTIVATORS AND THEIR MEDICAL USE THEREOF” (Humanwell Pharmaceutical US, Inc., priority 2024, published 2026).

Biological target: T1, KNCQ2/3 (Kv7.2/7.3) (Homo sapiens, UniProt O43525+O43526)
T1 construct: host or cells: HEK293
Experiment: Kv7.2/7.3 (KNCQ2/3) activation assay, QPatch single concentration screen
Assay type: cell-based
Settings: increase in current over baseline, HEK293 cells with overexpressed Kv7.2/3, compound 1 μM, steady-state current at +40 mV
Method: The ability of compounds to potentiate K-currents in HEK293 cells with overexpressed KNCQ2/3 (Kv7.2/7.3) was assessed using patch clamp on the QPatch automated screening platform.
Cell Line: The HEK293 cell line with overexpressed Kv7.2/7.3 was obtained from ICE Bioscience Inc. These HEK cells have been engineered to overexpress the Kv7.2/3 ion channels.
Cell Culture: Cells were maintained in the media containing DMEM (Corning, cat. #10-013-CV), 10% FBS (Gibco, cat. #10099141C), 800 μg/mL G418 (GPC, cat. #AK108) and 200 μg/mL hygromycin B (Solarbio, cat. #H8080). The cells were incubated at 37° C. in a humidified incubator under 5% carbon dioxide. Cells were grown in 6 cm dishes to ˜80% confluency. Currents were recorded 24 hours after channel induction.
Compound Plates: Test compounds were prepared by performing serial dilutions in DMSO (Sigma cat #D4540). Final dilutions were made in external recording solution with a final DMSO concentration of 0.1% DMSO. For single concentration screens each plate had 10 μM retigabine (Selleck Chemicals, cat. #S4733) as a positive control.
Electrophysiology: External solution contained 140 mM NaCl (Sigma cat. #S5886), 3.5 mM KCl (Sigma cat. #P5405), 1 mM MgCl2·6H2O (Sigma cat. #M2393), 2 mM CaCl2·2H2O (Sigma cat. #C7902), 10 mM D-Glucose (Sigma cat. #G8270), 10 mM HEPES (Santa Cruz cat. #SC-29097A), 1.25 mM NaH2PO4·2H2O, pH was adjusted to 7.4 with NaOH. Internal solution contained 125 mM K-Aspartic (Sigma cat. #G4500), 20 mM KCl, 10 mM EGTA (Sigma cat. #E3889), 1 mM MgCl2·6H2O, 5 mM Mg-ATP (Sigma cat. #A9187), 5 mM HEPES, pH was adjusted to 7.2 with KOH.
On the day of the experiment cells are washed with the external solution and harvested with 0.25% Trypsin EDTA (Gibco cat. #25200-072). Cells were then centrifuged at 1000 rpm/min for 5 minutes and resuspended in the external solution at ˜2.5×10^6 cells/mL. The cells were stirred with an equilibrium sharker for 20 minutes at room temperature before experiments started.
Potassium channel activity was measured on the QPatch 48X (Sophion Bioscience) using QPlates with 48-wells plate. The KCNQ current was recorded when the voltage was held at −80 mV for 3s, then stepped to −30 mV for 500 ms and back to […]. The process was repeated with an increment of 10 mV between −80 mV and +40 mV. Each cell was taken as an independent experiment and only one compound was tested per well.
Single Concentration Screen: Baseline conditions were obtained by recording 5 sweeps in the external solution only, this was repeated for three applications of the external solution. The effect of test compounds on elicited current was then assessed by recording 5 sweeps in the presence of a 1 μM compound solution. The steady-state current at the end of the 2 s pulse to +40 mV was measured to determine the fold increase from baseline.

SMILES | activity at 1 µM [%]
CC(C)(C)CC(=O)Nc1nc2c(n1C(C)(C)C)CCCC2 [Compound 1] | 100 to 200
CC(C)(C)CC(=O)Nc1nc2c(n1C1CCC1)CCCC2 [Compound 3] | 100 to 200
CC(C)(C)CC(=O)Nc1nn2c(c1-c1ccc(F)cc1)CN(C(F)(F)F)CC2 [Compound 7] | 100 to 200
CC(C)(C)CC(=O)Nc1nn2c(c1C1CCC1)CCCC2 [Compound 8] | 200 to 300
CC(C)(CC(=O)Nc1nn2c(c1-c1ccc(F)cc1)CC(C(F)(F)F)CC2)C(F)(F)F (stereo not drawn) [Compound 10] | ≥ 300
COC1CCn2nc(NC(=O)CC(C)(C)C)c(-c3ccc(F)cc3)c2C1 (stereo not drawn) [Compound 12] | 200 to 300
CC(C)(C)CC(=O)Nc1nn2c(c1C1=CCCCC1)CC(C(F)(F)F)CC2 (stereo not drawn) [Compound 14] | 200 to 300
CC(C)(C)CC(=O)Nc1nn2c(c1C1CCCCC1)CC(C(F)(F)F)CC2 (stereo not drawn) [Compound 15] | ≥ 300
CC(C)(C)CC(=O)Nc1nn2c(c1-c1cccnc1)CC(C(F)(F)F)CC2 (stereo not drawn) [Compound 16] | 100 to 200
CC(C)(C)CC(=O)Nc1nn2c(c1C1CCC1)CC(C(F)(F)F)CC2 (stereo not drawn) [Compound 20] | ≥ 300
O=C(CC1CC(F)(F)C1)Nc1nn2c(c1-c1ccc(F)cc1)CC(C(F)(F)F)CC2 (stereo not drawn) [Compound 32] | ≥ 300
O=C(CC12CC(C1)C2)Nc1nn2c(c1-c1ccc(F)cc1)CC(C(F)(F)F)CC2 (stereo not drawn) [Compound 33] | ≥ 300

Further lines, results first:

activity at 1 µM [%] | SMILES
200 to 300 | O=C(CCC(F)(F)F)Nc1nn2c(c1-c1ccc(F)cc1)CC(C(F)(F)F)CC2 (stereo not drawn) [Compound 34]
≥ 300 | CC1(CC(=O)Nc2nn3c(c2-c2ccc(F)cc2)CC(C(F)(F)F)CC3)CC1 (stereo not drawn) [Compound 35]
≥ 300 | CC(C)(F)CC(=O)Nc1nn2c(c1-c1ccc(F)cc1)CC(C(F)(F)F)CC2 (stereo not drawn) [Compound 36]
100 to 200 | O=C(CC1CSC1)Nc1nn2c(c1-c1ccc(F)cc1)CC(C(F)(F)F)CC2 (stereo not drawn) [Compound 37]
200 to 300 | CC(C)(C)CC(=O)Nc1nn2c(c1-c1ccc(F)cc1)CN(C1CC1)CC2 [Compound 43]
100 to 200 | C=CCN1CCn2nc(NC(=O)CC(C)(C)C)c(-c3ccc(F)cc3)c2C1 [Compound 44]
100 to 200 | CC(C)(CC(=O)Nc1nn2c(c1-c1ccc(F)cc1)CN(C1CC1)CC2)C(F)(F)F [Compound 47]
100 to 200 | CC(C)(C)CC(=O)Nc1nc2n(c1C1CCCCC1)CCCC2 [Compound 53]
200 to 300 | CC(C)(C)CC(=O)Nc1nc2n(c1-c1ccc(OC(F)(F)F)cc1)CCCC2 [Compound 54]
≥ 300 | CC(C)(C)CC(=O)Nc1nn2c(c1-c1ccc(F)cc1)CC1(CC2)CC(F)(F)C1 [Compound 55]
100 to 200 | CC(C)(C)CC(=O)Nc1nc2ncccc2n1-c1ccc(F)cc1 [Compound 60]
100 to 200 | CCn1c(NC(=O)CC(C)(C)C(F)(F)F)nc2c1CCCC2 [Compound 64]
200 to 300 | CCn1c(NC(=O)CC(C)(C)C)nc2c1CCCC2 [Compound 65]

Tested on: PTZ-induced epileptic model using ICR mice
Experiment: PTZ-induced epilepsy model in ICR mice
Assay type: in vivo
Settings: male ICR mice, 10 mg/kg oral 30 min before PTZ 100 mg/kg i.p., recorded for 30 min
Method: SPF-grade male ICR mice (22-24 g) were purchased from Human Silaike Jingda Laboratory Animal Co. Ltd., China and sent to the housing facility after veterinary inspection to adapt to the rearing environment. The mice were housed in cages for 3 days under suitable conditions (temperature at 22±1° C., humidity at 40-70%, sufficient water and food, 12 hours of daylight). On the formal test day, all mice were weighed, and those meeting the weight criteria were numbered at the base of their tails. […] Animals were orally administered compound 34 (10 mg/kg) 30 min before the i.p. injection of PTZ (100 mg/kg, Sigma, USA) for epilepsy modeling. The seizure response of the mice was evaluated based on the epilepsy grading criteria. The latency and incidence rate of each seizure grade were recorded for 30 min. After the experiment, the test animals were euthanized using carbon dioxide. The results are shown in Table 2 and FIG. 1 respectively.

SMILES | Latency to Racine IV Seizure [s] | Latency to Racine VI Seizure [s]
O=C(CCC(F)(F)F)Nc1nn2c(c1-c1ccc(F)cc1)CC(C(F)(F)F)CC2 (stereo not drawn) [Compound 34] | 1393 | 1658
CC(C)(CC(=O)Nc1nn2c(c1-c1ccc(F)cc1)CCCC2)C(F)(F)F [Compound 38] | 784 | 1320
CC(C)CS(=O)(=O)Nc1nn2ccc(Cl)cc2c1-c1ccc(F)cc1 [Compound 62] | 636 | 1409

Tested on: formalin model using SD rats
Experiment: 2% formalin rat model (paw licking)
Assay type: in vivo
Settings: male SD rats, 10 mg/kg oral 15 min before intraplantar 2.0% formalin, paw licking monitored for 60 min
Method: SPF male SD rats (170-190 g) were purchased from Human Silaike Jingda Laboratory Animal Co. Ltd., China. The rats were housed in cages for 3 days under suitable conditions (temperature at 22±1° C., humidity at 40-70%, sufficient water and food, 12 hours of daylight). The rats with a body weight of 220-240 g were numbered for further experiments. The rats were placed in the ZH-PAN801 automated rodent behavioral tracking system (Anhui Zhenghua Biologic Apparatus Facilities) for 60 min per day for an additional 3 days.
Paw licking behavior, a correlation of spontaneous pain, was tracked using the ZH-PAN801 automated rodent behavioral tracking system that can differentiate behaviors and locomotor activity of individually housed rats. The ZH-PAN801 system consists of sensor platforms which rest on two orthogonally placed force transducers and a third fixed point attached to a base plate. Each force transducer transforms the mechanical vibrations caused by animal movement into electrical signals, which are amplified, filtered, and digitized by the ZH-PAN801 system. Characteristic movements have their own unique vibrational patterns which the ZH-PAN801 software can distinguish. The cylinder cages (75 mm (radius)×310 mm (height)) consist of two halves to sensitize detection of vibrations. Thus, the base is separate from the sides, the lid, and sits directly on the sensor platform, while the sides and the lid hang from supports on the base plate.
Rats were equipped with the force transducer 15 min before the dosing. Animals were orally administered compound 21 (10 mg/kg) 15 min before the formalin injection. Rats were administered an intraplantar injection of formalin (50 μL, 2.0%, Sigma, USA) into the dorsal surface of the hindpaw attached with the force transducer to induce acute pain and placed in the automated rodent behavioral tracking system. Paw licking behavior was monitored for 60 min using the ZH-PAN801 behavior tracking system. The duration of paw licking behavior (in minutes) was collected from two distinctive phases, the early nociceptive phase occurring 0-10 min after formalin injection and the late phase thought to be associated with central sensitization, which peaks 11-60 min after formalin injection. Treatment effects were compared to vehicles by an unpaired t-test and one-way ANOVA using Graph Pad 9.0. The results are shown in Table 3 and FIG. 2 respectively.

SMILES | % MPE (10 mpk) [%]
CC(C)(CC(=O)Nc1nn2c(c1-c1ccc(F)cc1)C[C@@H](C(F)(F)F)CC2)C(F)(F)F [Compound 24] | 97
O=C(CCC(F)(F)F)Nc1nn2c(c1-c1ccc(F)cc1)CC(C(F)(F)F)CC2 (stereo not drawn) [Compound 34] | 65
CC(C)(CC(=O)Nc1nn2c(c1-c1ccc(F)cc1)CCCC2)C(F)(F)F [Compound 38] | 87
CC(C)(C)n1c(NC(=O)CC(C)(C)C(F)(F)F)nc2cc3c(cc21)CNC3 [Compound 58] | 89
CC(C)CS(=O)(=O)Nc1nn2ccc(Cl)cc2c1-c1ccc(F)cc1 [Compound 62] | 89
